Experiments:
[1] = system: MCF-7 (human breast adenocarcinoma) cell line; experiment: MTT cytotoxicity assay, MCF-7; type: cell-based; conditions: 48 h incubation, mean ± SD
Procedure: (§1) HCT-116 (human colorectal carcinoma) and MCF-7 (human breast adenocarcinoma) cell lines were purchased from the American Type Culture Collection (Rockville, MD) and maintained in Dulbecco’s Modified Eagle’s Medium (DMEM) supplemented with 10% heat-inactivated foetal bovine serum (FBS), 100 U ml^−1 penicillin, and 100 U ml^−1 streptomycin. The cells were grown at 37 °C in a humidified atmosphere of 5% CO2.
(§2) Cytotoxicity activity against HCT-116 and MCF-7 was estimated by the 3-[4,5-dimethyl-2-thiazolyl)-2,5-diphenyl-2H-tetrazolium bromide (MTT) assay. This test is based on MTT cleavage by mitochondrial dehydrogenases from viable cells[43]^,[44]. Cells were placed in a 96-well sterile microplate (5 × 10^4 cells well^−1) and incubated at 37 °C in serum-free media containing dimethyl sulphoxide (DMSO) and either a series of various concentrations of each compound or doxorubicin (positive control) for 48 h before the MTT assay. After incubation, the media were removed and 40 µl MTT (2.5 mg ml^−1) was added to each well. Incubation was resumed for an additional 4 h. The purple formazan dye crystals were solubilised with 200 µl DMSO. Absorbance was measured at 590 nm in a Spectra Max Paradigm Multi-Mode microplate reader (Molecular Devices, LLC, San Jose, CA). Relative cell viability was expressed as the mean percentage of viable cells compared to the untreated control cells.
(§3) All experiments were conducted in triplicate and repeated on three different days. All values were reported as mean ± SD. The IC50 values were determined by SPSS Inc. probit analysis (IBM Corp., Armonk, NY).

[2] = system: HCT-116 (human colorectal carcinoma) cell line; experiment: MTT cytotoxicity assay, HCT-116; type: cell-based; conditions: 48 h incubation, mean ± SD
Procedure: as §1, §2, §3

[3] = molecular target: mutant EGFR kinase type L858R (Homo sapiens, UniProt P00533, L858R); experiment: In vitro kinase inhibition assay (Kinase-Glo Max luminescence); conditions: IC50 (mean ± SEM) (µM) EGFR, mean of three values ± SEM
Chain of mutant EGFR kinase type L858R (P00533 25-1210 L858R): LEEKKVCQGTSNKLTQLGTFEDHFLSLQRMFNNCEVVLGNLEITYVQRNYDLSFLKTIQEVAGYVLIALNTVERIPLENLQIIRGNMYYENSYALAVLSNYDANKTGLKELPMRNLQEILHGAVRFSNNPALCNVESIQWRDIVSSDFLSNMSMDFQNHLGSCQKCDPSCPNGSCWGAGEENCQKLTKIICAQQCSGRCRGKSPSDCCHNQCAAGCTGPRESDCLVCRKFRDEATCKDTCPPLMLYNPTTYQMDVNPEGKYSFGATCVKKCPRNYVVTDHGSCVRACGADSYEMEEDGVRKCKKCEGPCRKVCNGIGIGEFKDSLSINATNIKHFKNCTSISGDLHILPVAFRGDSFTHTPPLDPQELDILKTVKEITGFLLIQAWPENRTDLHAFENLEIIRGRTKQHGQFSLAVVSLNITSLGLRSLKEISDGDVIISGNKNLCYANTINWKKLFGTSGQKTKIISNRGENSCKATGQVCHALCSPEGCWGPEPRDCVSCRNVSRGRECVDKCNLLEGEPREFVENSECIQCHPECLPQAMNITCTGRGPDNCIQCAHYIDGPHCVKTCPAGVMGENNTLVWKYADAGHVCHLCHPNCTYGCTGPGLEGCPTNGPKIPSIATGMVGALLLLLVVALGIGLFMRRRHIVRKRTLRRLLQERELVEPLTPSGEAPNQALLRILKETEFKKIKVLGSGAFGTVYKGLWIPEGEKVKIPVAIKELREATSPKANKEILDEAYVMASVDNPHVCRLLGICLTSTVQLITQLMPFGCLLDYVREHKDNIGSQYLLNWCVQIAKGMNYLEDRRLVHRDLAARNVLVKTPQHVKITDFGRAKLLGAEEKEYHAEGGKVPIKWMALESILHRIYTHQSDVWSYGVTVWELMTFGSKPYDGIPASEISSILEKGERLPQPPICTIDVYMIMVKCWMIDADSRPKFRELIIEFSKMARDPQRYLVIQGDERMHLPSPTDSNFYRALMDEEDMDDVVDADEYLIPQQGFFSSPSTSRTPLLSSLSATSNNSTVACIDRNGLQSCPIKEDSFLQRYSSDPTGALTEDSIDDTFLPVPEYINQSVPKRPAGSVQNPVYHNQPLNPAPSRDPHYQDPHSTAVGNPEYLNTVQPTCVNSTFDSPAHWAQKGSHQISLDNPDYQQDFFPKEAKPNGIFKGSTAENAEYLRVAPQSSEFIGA
Procedure: The master mixture (6 μl 5× kinase buffer + 1 μl ATP (500 μM)+1 μl 50× PTK substrate + 17 μl water) was prepared then, 25 μl to every well was added. Five microlitres of inhibitor solution of each well labelled as “Test Inhibitor” was added. However, for the “Positive Control” and “Blank”, 5 μl of the same solution without inhibitor (inhibitor buffer) was added. Three millilitres of 1× kinase buffer by mixing 600 μl of 5× kinase buffer with 2400 μl water was prepared. […] To the wells designated as “Blank”, 20 μl of 1× kinase buffer was added. EGFR enzyme on ice was thawed. Upon first thaw, briefly the tube containing enzyme was spun to recover full content of the tube. The amount of EGFR required for the assay and dilute enzyme to 1 ng/μl with 1× kinase buffer was calculated. Moreover, the remaining undiluted enzyme in aliquots was stored at –80 °C. The reaction was initiated by adding 20 μl of diluted EGFR enzyme to the wells designated “Positive Control” and “Test Inhibitor Control”, after that it was incubated at 30 °C for 40 min. After the 40 minutes’ reaction, 50 μl of Kinase-Glo Max reagent was added to each well and the plate was covered with aluminium foil and incubated at room temperature for 15 min. Luminescence was measured using the microplate reader.

| Compound | IC50 ([1]; Homo sapiens, MCF7, 48 h) [µM] | melting point [°C] | IC50 ([2]; Homo sapiens, HCT-116, 48 h) [µM] | IC50 [3] [µM] | IC50 [1] [µM] | IC50 [2] [µM] |
| --- | --- | --- | --- | --- | --- | --- |
| CC(=O)OCC1OC(OCc2cn(CCCCSc3nc4sc5c(c4c(=O)n3N)CCC5)nn2)C(OC(C)=O)C(OC(C)=O)C1OC(C)=O (stereo not drawn) [Compound 16] | 5.3 ± 0.8 | 163 to 164 | 8.1 ± 0.8 |  |  |  |
| CC(=O)OC1COC(n2cc(CSc3nc4sc5c(c4c(=O)n3N)CCC5)nn2)C(OC(C)=O)C1OC(C)=O [Compound 5, 3-Amino-2-(((1-(2,3,4-tri-O-acetyl-β-D-xyloopyranosyl)-1H-1,2,3-triazol-4-yl)methyl)thio)-3,5,6,7-tetrahydro-4H-cyclopenta[4,5]thieno[2,3-d]pyrimidin-4-one] | 2.9 ± 0.4 | 155 to 156 | 8.6 ± 0.9 | 0.13 |  |  |
| CC(=O)OCC1OC(OCc2cn(CCSc3nc4sc5c(c4c(=O)n3N)CCC5)nn2)C(OC(C)=O)C(OC(C)=O)C1OC(C)=O (stereo not drawn) [Compound 14] |  | 156 to 157 |  | 0.013 | 4.5 ± 0.7 | 8.8 ± 1.1 |
| CC(=O)OC1COC(OCc2cn(CCSc3nc4sc5c(c4c(=O)n3N)CCC5)nn2)C(OC(C)=O)C1OC(C)=O (stereo not drawn) [Compound 15] | 5 ± 0.9 | 153 to 154 | 8.9 ± 1.1 | 0.017 |  |  |
| C#CCSc1nc2sc3c(c2c(=O)n1N)CCC3 [Compound 2, 3-Amino-2-(prop-2-yn-1-ylthio)-3,5,6,7-tetrahydro-4H-cyclopenta[4,5]thieno[2,3-d]pyrimidin-4-one] | 2.1 ± 0.3 | 181 to 182 | 8.6 ± 1.9 | 0.5 ± 1 |  |  |
| COc1cccc2c1C(=O)c1c(O)c3c(c(O)c1C2=O)C[C@@](O)(C(=O)CO)C[C@@H]3O[C@H]1C[C@H](N)[C@H](O)[C@H](C)O1 [Doxorubicin, reference compound] | 6.7 ± 0.9 |  | 7.8 ± 0.7 |  |  |  |
| CC(=O)OC[C@H]1O[C@@H](n2cc(CSc3nc4sc5c(c4c(=O)n3N)CCC5)nn2)[C@H](OC(C)=O)[C@@H](OC(C)=O)[C@@H]1OC(C)=O [Compound 4, 3-Amino-2-(((1-(2,3,4,6-tetra-O-acetyl-β-D-glucopyranosyl)-1H-1,2,3-triazol-4-yl)methyl)thio)-3,5,6,7-tetrahydro-4H-cyclopenta [4,5]thieno[2,3-d]pyrimidin-4-one] |  | 151 to 152 |  |  |  |  |
| Nn1c(SCc2cn([C@@H]3OC[C@@H](O)[C@H](O)[C@H]3O)nn2)nc2sc3c(c2c1=O)CCC3 [Compound 7, 3-Amino-2-(((1-(β-D-xylopyranosyl)-1H-1,2,3-triazol-4-yl)methyl)thio)-3,5,6,7-tetrahydro-4H-cyclopenta[4,5]thieno[2,3-d]pyrimidin-4-one] | 4.3 ± 0.8 | 189 to 190 | 8.7 ± 1.5 | 0.17 ± 0.43 |  |  |
| CC(=O)OCC1OC(OCc2cn(CCCCSc3nc4sc5c(c4c(=O)n3N)CCC5)nn2)C(OC(C)=O)C(OC(C)=O)C1OC(C)=O (stereo not drawn) [Compound 17] |  | 159 to 160 |  | 0.02 | 5.2 ± 0.9 | 8.4 ± 1.1 |
| CC(=O)OCC1OC(OCc2cn(CCSc3nc4sc5c(c4c(=O)n3N)CCC5)nn2)C(OC(C)=O)C(OC(C)=O)C1OC(C)=O [Compound 13, 3-Amino-2-(ethylylthio)-{2-[4-({[2,3,4,6-tetra-O-acetyl-β-D-glucopyranosyl]oxy}methyl)-1H-1,2,3-triazol-1-yl]ethoxy}-3,5,6,7-tetrahydro-4H-cyclopenta[4,5]thieno[2,3-d] pyrimidin-4-one] | 4.2 ± 0.5 | 159 to 160 | 8.7 ± 1.6 |  |  |  |
